Literature values as cited in patent US10561625B2, “Methods of treatment using sustained release sotalol formulations” (The Roshni Singh 2015 Trust, priority 2004, dated 2020).
Structures can show the parent of a compound that is named as a salt.

How the values were obtained:
[1] = not given; remark: listed apart in the source

Row | plasma half-life (in vivo) [h] | solubility in water [1] | elimination (exclusively renal) half-life (administered twice daily) [h] | peak plasma concentration (time) (after a dose of the current formulation) [h] | mean elimination half-life (current formulation) | bioavailability (in vivo) [%] | absorbed after oral ingestion (oral, no first-pass hepatic metabolism) [%] | SMILES
1 | 2.5 to 9.5 | freely soluble in water | – | – | – | – | – | COCCc1ccc(OCC(O)CNC(C)C)cc1 (centres unmarked) [Metoprolol]
2 | – | freely soluble in water | 8 to 12 | 2 to 3 | about 12 hours | 100 | 100 | CC(C)NCC(O)c1ccc(NS(C)(=O)=O)cc1 (racemic) [Sotalol, 4′-(2-isopropylaminoethyl-1-hydroxy) methanesulphonanilide hydrochloride]
